Results from patent US10138253B2, “Imidazopyridine macrocycles as inhibitors of human immunodeficiency virus replication” (priority 2015, dated 2018).
Read-outs that look alike come from different tables or passages of the source.

Tested on: NL-RLuc virus
Experiment: Inhibition of HIV replication (NL-RLuc virus, luciferase readout, MT-2 cells)
Assay type: cell-based
Conditions: Human immunodeficiency virus 1, MT2, 120 h
Text: Inhibition of HIV Replication:
A recombinant NL-RLuc proviral clone was constructed in which a section of the nef gene from NL4-3 was replaced with the Renilla Luciferase gene. This virus is fully infectious and can undergo multiple cycles of replication in cell culture. In addition, the luciferous reporter provides a simple and easy method for quantitating the extent of virus growth and consequently, the antiviral activity of test compounds. The plasmid pNLRLuc contains the proviral NL-Rluc DNA cloned into pUC18 at the PvuII site. The NL-RLuc virus was prepared by transfection of 293T cells with the plasmid pNLRLuc. Transfections were performed using the LipofectAMINE PLUS kit from Invitrogen (Carlsbad, Calif.) according to the manufacturer and the virus generated was titered in MT-2 cells. For susceptibility analyses, the titrated virus was used to infect MT-2 cells in the presence of compound, and after 5 days of incubation, cells were processed and quantitated for virus growth by the amount of expressed luciferase. Assay media was RPMI 1640 supplemented with 10% heat inactivated fetal bovine serum (FBS), 100 units/ml penicillin G/100 units/ml streptomycin, 10 mM HEPES buffer pH 7.55 and 2 mM L-glutamine. The results from at least 2 experiments were used to calculate the EC50 values. Luciferase was quantitated using the Dual Luciferase kit from Promega (Madison, Wis.). Susceptibility of viruses to compounds was determined by incubation in the presence of serial dilutions of the compound. The 50% effective concentration (EC50) was calculated by using the exponential form of the median effect equation where (Fa)=1/[1+(ED50/drug conc.)^m] (Johnson V A, Byington R T. Infectivity Assay. In Techniques in HIV Research. ed. Aldovini A, Walker B D. 71-76. New York: Stockton Press. 1990). Activity equal to A refers to a compound having an EC50≤100 nM, while B and C denote compounds having an EC50 between 100 nM and luM (B) or >1 uM (C).

Row | Structure (SMILES) | EC50 (read-out: Activity) [µM] | EC50 (read-out: EC50 μM) [µM]
1 | Cc1c([C@H](OC(C)(C)C)C(=O)O)c2n3cc(nc3c1C(C)O)-c1cccc(c1)-c1cc(F)c(F)cc1O[C@@H](C)COCCOC1(C)CCN2CC1 (single isomer, unassigned) [Example 16] | < 0.1 | 0.002
2 | Cc1cc2nc3cn2c(c1[C@H](OC(C)(C)C)C(=O)O)N1CCC(C)(CC1)OCCOC[C@H](C)Oc1cc(F)c(F)cc1-c1cccc-3c1 [Example 1, (2S)-2-(tert-Butoxy)-2-[(22S)-17,18-difluoro-4,22,28-trimethyl-21,24,27-trioxa-1,7,34-triazahexacyclo[26.2.2.1^6,^9.1^1^0,^1^4.0^2,^7.0^1^5,^2^0]tetratriaconta-2,4,6(34),8,10(33),11,13,15(20),16,18-decaen-3-yl]acetic Acid] | < 0.1 | 0.001
3 | Cc1c([C@H](OC(C)(C)C)C(=O)O)c2n3cc(nc3c1C)-c1cccc(c1)-c1cc(F)c(F)cc1O[C@@H](C)COCCOC1(C)CCN2CC1 [Example 2, (2S)-2-(tert-Butoxy)-2-[(22S)-17,18-difluoro-4,5,22,28-tetramethyl-21,24,27-trioxa-1,7,34-triazahexacyclo[26.2.2.1^6,^9.1^1^0,^1^4.0^2,^7.0^1^5,^2^0]tetratriaconta-2,4,6(34),8,10(33),11,13,15(20),16,18-decaen-3-yl]acetic Acid] | < 0.1 | 
4 | Cc1c([C@@H](OC(C)(C)C)C(=O)O)c2n3cc(nc3c1C)-c1cccc(c1)-c1cc(F)c(F)cc1O[C@@H](C)COCCOC1(C)CCN2CC1 [Example 3, (2R)-2-(tert-butoxy)-2-((6S,Z)-44,45-difluoro-14,27,6-trimethyl-5,8,11-trioxa-2(5,2)-imidazo[1,2-a]pyridina-1(1,4)-piperidina-3(1,3),4(1,2)-dibenzenacycloundecaphane-26-yl)acetic Acid] | 0.1 to 1 | 0.305
5 | CCC(C)(C)O[C@H](C(=O)O)c1c(C)c(C)c2nc3cn2c1N1CCC(C)(CC1)OCCOC[C@H](C)Oc1cc(F)c(F)cc1-c1cccc-3c1 [Example 4, (2S)-2-[(22S)-17,18-Difluoro-4,5,22,28-tetramethyl-21,24,27-trioxa-1,7,34-triazahexacyclo[26.2.2.1^6,^9.1^1^0,^1^4.0^2,^7.0^1^5,^2^0]tetratriaconta-2,4,6(34),8,10(33),11,13,15(20),16,18-decaen-3-yl]-2-[(2-methylbutan-2-yl)oxy]acetic Acid] | < 0.1 | 
6 | Cc1c([C@H](O)C(=O)O)c2n3cc(nc3c1C)-c1cccc(c1)-c1cc(F)c(F)cc1O[C@@H](C)COCCOC1(C)CCN2CC1 [Example 5, (2S)-2-[(22S)-17,18-Difluoro-4,5,22,28-tetramethyl-21,24,27-trioxa-1,7,34-triazahexacyclo[26.2.2.1^6,^9.1^1^0,^1^4.0^2,^7.0^1^5,^2^0]tetratriaconta-2,4,6(34),8,10(33),11,13,15(20),16,18-decaen-3-yl]-2-hydroxyacetic Acid] | 0.1 to 1 | 0.283
7 | Cc1c([C@H](OC(C)(C)C)C(=O)O)c2n3cc(nc3c1CO)-c1cccc(c1)-c1cc(F)c(F)cc1O[C@@H](C)COCCOC1(C)CCN2CC1 [Example 6, (2S)-2-(tert-Butoxy)-2-[(22S)-17,18-difluoro-5-(hydroxymethyl)-4,22,28-trimethyl-21,24,27-trioxa-1,7,34-triazahexacyclo[26.2.2.1^6,^9.1^1^0,^1^4.0^2,^7.0^1^5,^2^0]tetratriaconta-2,4,6(34),8,10(33),11,13,15(20),16,18-decaen-3-yl]acetic Acid] | < 0.1 | 0.002
8 | Cc1cc2nc3c(Cl)n2c(c1[C@H](OC(C)(C)C)C(=O)O)N1CCC(C)(CC1)OCCOC[C@H](C)Oc1cc(F)c(F)cc1-c1cccc-3c1 [Example 7, (2S)-2-(tert-Butoxy)-2-[(22S)-8-chloro-17,18-difluoro-4,22,28-trimethyl-21,24,27-trioxa-1,7,34-triazahexacyclo[26.2.2.1^6,^9.1^1^0,^1^4.0^2,^7.0^1^5,^2^0]tetratriaconta-2,4,6(34),8,10(33),11,13,15(20),16,18-decaen-3-yl]acetic Acid] | < 0.1 | 
9 | Cc1c([C@H](OC(C)(C)C)C(=O)O)c2n3c(Cl)c(nc3c1C)-c1cccc(c1)-c1cc(F)c(F)cc1O[C@@H](C)COCCOC1(C)CCN2CC1 [Example 8, (2S)-2-(tert-Butoxy)-2-[(22S)-8-chloro-17,18-difluoro-4,5,22,28-tetramethyl-21,24,27-trioxa-1,7,34-triazahexacyclo[26.2.2.1^6,^9.1^1^0,^1^4.0^2,^7.0^1^5,^2^0]tetratriaconta-2,4,6(34),8,10(33),11,13,15(20),16,18-decaen-3-yl]acetic Acid] | < 0.1 | 
10 | Cc1c([C@H](OC(C)(C)C)C(=O)O)c2n3c(Cl)c(nc3c1CO)-c1cccc(c1)-c1cc(F)c(F)cc1O[C@@H](C)COCCOC1(C)CCN2CC1 [Example 9, (2S)-2-(tert-Butoxy)-2-[(22S)-8-chloro-17,18-difluoro-5-(hydroxymethyl)-4,22,28-trimethyl-21,24,27-trioxa-1,7,34-triazahexacyclo[26.2.2.1^6,^9.1^1^0,^1^4.0^2,^7.0^1^5,^2^0]tetratriaconta-2,4,6(34),8,10(33),11,13,15(20),16,18-decaen-3-yl]acetic Acid] | < 0.1 | 
11 | Cc1c([C@H](OC(C)(C)C)C(=O)O)c2n3c(Cl)c(nc3c1Cn1cccn1)-c1cccc(c1)-c1cc(F)c(F)cc1O[C@@H](C)COCCOC1(C)CCN2CC1 [Example 10, (2S)-2-(tert-Butoxy)-2-[(22S)-8-chloro-17,18-difluoro-4,22,28-trimethyl-5-(1H-pyrazol-1-ylmethyl)-21,24,27-trioxa-1,7,34-triazahexacyclo[26.2.2.1^6,^9.1^1^0,^1^4.0^2,^7.0^1^5,^2^0]tetratriaconta-2,4,6(34),8,10(33),11,13,15(20),16,18-decaen-3-yl]acetic acid] | < 0.1 | 0.005
12 | COCc1c(C)c([C@H](OC(C)(C)C)C(=O)O)c2n3c(Cl)c(nc13)-c1cccc(c1)-c1cc(F)c(F)cc1O[C@@H](C)COCCOC1(C)CCN2CC1 [Example 11, (2S)-2-(tert-Butoxy)-2-[(22S)-8-chloro-17,18-difluoro-5-(methoxymethyl)-4,22,28-trimethyl-21,24,27-trioxa-1,7,34-triazahexacyclo[26.2.2.1^6,^9.1^1^0,^1^4.0^2,^7.0^1^5,^2^0]tetratriaconta-2,4,6(34),8,10(33),11,13,15(20),16,18-decaen-3-yl]acetic Acid] | < 0.1 | 
13 | Cc1c([C@H](OC(C)(C)C)C(=O)O)c2n3c(Cl)c(nc3c1Cn1ccnn1)-c1cccc(c1)-c1cc(F)c(F)cc1O[C@@H](C)COCCOC1(C)CCN2CC1 [Example 12, (2S)-2-(tert-Butoxy)-2-[(22S)-8-chloro-17,18-difluoro-4,22,28-trimethyl-5-(1H-1,2,3-triazol-1-ylmethyl)-21,24,27-trioxa-1,7,34-triazahexacyclo[26.2.2.1^6,^9.1^1^0,^1^4.0^2,^7.0^1^5,^2^0]tetratriaconta-2,4,6(34),8,10(33),11,13,15(20),16,18-decaen-3-yl]acetic Acid] | < 0.1 | 0.012
